From patent US9681664B2, “Macrocyclic picolinamides as fungicides” (Dow Agrosciences LLC, priority 2012, dated 2017)
Like-named read-outs stand apart in the source and are kept apart here.

Assays:
[1] = test system: Puccinia triticina; Synonym: Puccinia recondite f. sp. tritici; assay: Wheat brown rust (PUCCRT) disease control on wheat seedlings; assay type: in vivo; conditions: Puccinia triticina, 100 ppm
Method in brief: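 Yuma wheat grown to first fully emerged leaf was inoculated with Puccinia triticina spore suspension either before or after fungicide treatment, held overnight at 22° C. and 100% RH in darkness, then kept at 24° C. Fungicide applied by booth sprayer to run-off (acetone/water, 110 ppm Triton X-100) or as EC by track spray.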

[2] = test system: Mycosphaerella graminicola; Anamorph: Septoria tritici; assay: Leaf blotch of wheat (SEPTTR) disease control on wheat seedlings; assay type: in vivo; conditions: Zymoseptoria tritici, 100 ppm
Method in brief: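 Protective or curative format: Septoria tritici inoculation either preceded or followed fungicide application to first-leaf Yuma wheat. Severity scored 0–100%; control expressed versus untreated.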

[3] = 24 h, High volume application, 1 Day Protectant, read-out: PUCCRT 1DP disease control
[4] = 72 h, High volume application, 3 Day Curative, read-out: PUCCRT 3DC disease control
[5] = 24 h, High volume application, 1 Day Protectant, read-out: SEPTTR 1DP disease control
[6] = 72 h, High volume application, 3 Day Curative, read-out: SEPTTR 3DC disease control

Compound | pest or weed control at 100 ppm [1, 3] [%] | pest or weed control at 100 ppm [1, 4] [%] | pest or weed control at 100 ppm [2, 5] [%] | pest or weed control at 100 ppm [2, 6] [%] | pest or weed control at 100 ppm ([1]; 24 h, Wheat Brown Rust, 1 Day Protectant, high volume application, read-out: Disease Control PUCCRT 1 DP 100 ppm) [%] | pest or weed control at 100 ppm ([1]; 72 h, Wheat Brown Rust, 3 Day Curative, high volume application, read-out: Disease Control PUCCRT 3 DC 100 ppm) [%] | pest or weed control at 100 ppm ([2]; 24 h, Wheat Leaf Blotch, 1 Day Protectant, high volume application, read-out: Disease Control SEPTTR 1 DP 100 ppm) [%] | pest or weed control at 100 ppm ([2]; 72 h, Wheat Leaf Blotch, 3 Day Curative, high volume application, read-out: Disease Control SEPTTR 3 DC 100 ppm) [%]
COc1ccnc(C(=O)N[C@H]2CCC[C@H](OCCCC(F)(F)F)[C@@H](OC3CCCC3)[C@H](C)OC2=O)c1O [F168] | 80 to 100 | 80 to 100 | 80 to 100 | 80 to 100 |  |  |  | 
COc1ccnc(C(=O)N[C@H]2CCC[C@H](OCC(C)C)[C@@H](OC3CCCCC3)[C@H](C)OC2=O)c1O [F210] | 80 to 100 | 80 to 100 | 80 to 100 | 80 to 100 |  |  |  | 
COc1ccnc(C(=O)N[C@H]2CCC[C@H](OC3CCCCC3)[C@@H](OCC(C)C)[C@H](C)OC2=O)c1O [F211] | 80 to 100 | 80 to 100 | 80 to 100 | 80 to 100 |  |  |  | 
COc1ccnc(C(=O)N[C@H]2CCC[C@H](OCC(C)C)[C@@H](OCCCc3ccccc3)[C@H](C)OC2=O)c1OC(C)=O [F214] | 80 to 100 | 80 to 100 | 80 to 100 | 80 to 100 |  |  |  | 
COCCC(=O)Oc1c(OC)ccnc1C(=O)N[C@H]1CCC[C@H](OCC(C)C)[C@@H](OCCCc2ccccc2)[C@H](C)OC1=O [F215] | 80 to 100 | 80 to 100 | 80 to 100 | 80 to 100 |  |  |  | 
COc1ccnc(C(=O)N[C@H]2CCC[C@H](OCC(C)C)[C@@H](OCCCC(F)(F)F)[C@H](C)OC2=O)c1OC(C)=O [F216] | 80 to 100 | 80 to 100 | 80 to 100 | 80 to 100 |  |  |  | 
COc1ccnc(C(=O)N[C@H]2CCC[C@H](OCC(C)C)[C@@H](OC(=O)C3CCCC3)[C@H](C)OC2=O)c1OCOC(=O)C(C)C [F218] | 80 to 100 | 80 to 100 | 80 to 100 | 0 to 80 |  |  |  | 
COc1ccnc(C(=O)N[C@H]2CCC[C@H](OCCCc3ccccc3)[C@@H](OCC(C)C)[C@H](C)OC2=O)c1O [F219] | 80 to 100 | 80 to 100 | 80 to 100 | 0 to 80 |  |  |  | 
C=C(C)CO[C@H]1CCC[C@H](NC(=O)c2nccc(OC)c2O)C(=O)O[C@@H](C)[C@@H]1OCC(C)C [F220] | 80 to 100 | 80 to 100 | 80 to 100 | 80 to 100 |  |  |  | 
COc1ccnc(C(=O)N[C@H]2CCC[C@H](OC(=O)C3CCCC3)[C@@H](OCC(C)C)[C@H](C)OC2=O)c1O [F221] | 80 to 100 | 0 to 80 | 80 to 100 | 0 to 80 |  |  |  | 
COc1ccnc(C(=O)N[C@H]2CCC[C@H](OCCCc3ccccc3)[C@@H](OCC(C)C)[C@H](C)OC2=O)c1OCOC(C)=O [F222] | 80 to 100 | 80 to 100 | 80 to 100 | 80 to 100 |  |  |  | 
COc1ccnc(C(=O)N[C@H]2CCC[C@H](OC(=O)C3CCCC3)[C@@H](OCC(C)C)[C@H](C)OC2=O)c1OCOC(C)=O [F223] | 80 to 100 | 80 to 100 | 80 to 100 | 80 to 100 |  |  |  | 
COc1ccnc(C(=O)N[C@H]2CCC[C@H](OCCCc3ccccc3)[C@@H](OC3CCCC3)[C@H](C)OC2=O)c1O [F224] | 80 to 100 | 0 to 80 | 0 to 80 | 0 to 80 |  |  |  | 
COc1ccnc(C(=O)N[C@H]2CCC[C@H](OCCCc3ccccc3)[C@@H](OC3CCCC3)[C@H](C)OC2=O)c1OCOC(C)=O [F225] | 80 to 100 | 80 to 100 | 80 to 100 | 80 to 100 |  |  |  | 
COc1ccnc(C(=O)N[C@H]2CCC[C@H](Oc3ccccc3)[C@@H](OC(=O)C3CCCC3)[C@H](C)OC2=O)c1O [F232] |  |  |  |  | 80 to 100 | 80 to 100 | 80 to 100 | 0 to 80
